The text below walks through data of ChEMBL document CHEMBL4257578, “6'-Fluoro-3-deazaneplanocin: Synthesis and antiviral properties, including Ebola” (Bioorg Med Chem Lett, 2018).

Series [1] can be described thus: Cytotoxicity against African green monkey Vero E6 cells assessed as reduction in cell viability. The series is classed as cell-based. As to conditions: chlorocebus sabaeus, Vero E6 cells (Vero C1008).
Series [2] relates to Ebolavirus. The experiment in a line: Antiviral activity against Ebolavirus subtype Zaire infected in African green monkey Vero E6 cells. Type of series: functional, Ebola virus - Zaire (1995). The following applies: Orthoebolavirus, Vero C1008.
Series [3] is described as follows: Selectivity index, ratio of CC50 for African green monkey Vero E6 cells to EC50 for Ebolavirus subtype Zaire. The series is classed as toxicity, Vero C1008. As to conditions: read-out: Ratio CC50/EC50.
For another series, the system named is Chikungunya virus. The experiment in a line: Antiviral activity against Chikungunya virus infected in African green monkey Vero 76 cells. The series is classed as functional, organism-based.
Another series has as its system Usutu virus. The experiment in a line: Antiviral activity against Usutu virus infected in African green monkey Vero 76 cells. Type of series: functional, organism-based.
In a further series the test system is Punta Toro virus. The experiment in a line: Antiviral activity against Punta Toro virus infected in African green monkey Vero 76 cells. The series is classed as functional, organism-based.
The subject of the next series is Pichinde virus. The experiment in a line: Antiviral activity against Pichinde virus infected in African green monkey Vero. The series is classed as functional, organism-based.
Series [4] in a line: Selectivity index, ratio of CC50 for African green monkey Vero cells to EC50 for Pichinde virus. Type of series: toxicity. As to conditions: read-out: Ratio CC50/EC50.
Another series has as its system Tacaribe virus. The experiment in a line: Antiviral activity against Tacaribe virus infected in African green monkey Vero cells. Type of series: functional, organism-based. As to conditions: Mammarenavirus tacaribeense.
In the next series the test system is Poliovirus 1. The experiment in a line: Antiviral activity against Human poliovirus 1 infected in African green monkey Vero 76 cells. Type of series: functional, organism-based.
The test system of series [5] is Venezuelan equine encephalitis virus. The experiment in a line: Antiviral activity against Venezuelan equine encephalitis virus infected in African green monkey Vero 76 cells. The series is classed as functional, organism-based.
In series [6] the target is AdoHcyase_NAD domain-containing protein (Oryctolagus cuniculus, UniProt G1SVH0). The experiment in a line: Inhibition of SAHase from rabbit erythrocytes using S-adenosyl-L-homocysteine as substrate preincubated for 5 mins followed by substrate addition and measured after 1 hr by Measure-iTTM thiol quantitation reagent based assay.
Sequence of AdoHcyase_NAD domain-containing protein (G1SVH0 whole entry, the tested form may be a part): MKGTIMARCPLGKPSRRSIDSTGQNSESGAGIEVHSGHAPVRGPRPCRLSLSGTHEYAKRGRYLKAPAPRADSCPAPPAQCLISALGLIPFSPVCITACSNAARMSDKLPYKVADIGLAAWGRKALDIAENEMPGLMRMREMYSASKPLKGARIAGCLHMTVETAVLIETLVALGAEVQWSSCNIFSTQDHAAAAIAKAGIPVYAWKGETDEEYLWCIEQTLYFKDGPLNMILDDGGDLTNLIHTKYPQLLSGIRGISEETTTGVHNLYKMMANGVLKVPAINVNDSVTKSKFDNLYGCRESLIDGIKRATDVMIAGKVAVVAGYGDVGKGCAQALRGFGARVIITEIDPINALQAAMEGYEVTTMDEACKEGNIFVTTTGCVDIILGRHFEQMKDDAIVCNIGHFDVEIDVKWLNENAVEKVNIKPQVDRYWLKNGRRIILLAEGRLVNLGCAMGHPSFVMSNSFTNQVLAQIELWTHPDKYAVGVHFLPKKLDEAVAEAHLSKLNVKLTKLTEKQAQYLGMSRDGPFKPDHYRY
A short description of series [7]: Cytotoxicity against MDCK cells assessed as reduction in cell viability. As to conditions: dog. The series is classed as cell-based, Canis lupus familiaris.
The next series concerns Hepatitis B virus. The series is described as follows: Antiviral activity against Hepatitis B virus infected in human HepG2.2.15 cells. The series is classed as functional, organism-based.
For series [8], the system named is Japanese encephalitis virus. The experiment in a line: Antiviral activity against Japanese […] encephalitis virus infected in African green monkey Vero 76 cells. Type of series: functional, organism-based.
A further series concerns dengue virus type 2. The series is described as follows: Antiviral activity against Dengue virus 2 infected in African green monkey Vero 76 cells. The series is classed as functional, organism-based.
The subject of the next series is Rift Valley fever virus. The experiment in a line: Antiviral activity against Rift Valley fever virus infected in African green monkey Vero 76 cells. The series is classed as functional, organism-based.
A further series deals with Human adenovirus 5. The series is described as follows: Antiviral activity against Human adenovirus 5 infected in human A549 cells. Type of series: functional, organism-based.
The test system of another series is Influenza A virus. The series is described as follows: Antiviral activity against Influenza A virus (H1N1) infected in MDCK cells. Type of series: functional, organism-based.
Series [9] is described as follows: Selectivity index, ratio of CC50 for MDCK cells to EC50 for Influenza A virus (H1N1). Type of series: toxicity. The following applies: dog, read-out: Ratio CC50/EC50.
In the next series the test system is Measles morbillivirus. The series is described as follows: Antiviral activity against Measles virus infected in African green monkey Vero 76 cells. Type of series: functional, organism-based.
Series [10] can be described thus: Cytotoxicity against African green monkey Vero cells assessed as reduction in cell viability. Type of series: cell-based. The following applies: chlorocebus sabaeus.
A short description of series [11]: Selectivity index, ratio of CC50 for African green monkey Vero cells to EC50 for Ebolavirus. The series is classed as toxicity. As to conditions: read-out: Ratio CC50/EC50.
The nature of series [12]: Cytotoxicity against African green monkey Vero 76 cells assessed as reduction in cell viability. The series is classed as cell-based. As to conditions: chlorocebus sabaeus.
For a further series, the system named is Human betaherpesvirus 5. The experiment in a line: Antiviral activity against Human cytomegalovirus infected in human HFF cells. Type of series: functional, organism-based.
In series [13] the test system is Ebolavirus. The series is described as follows: Antiviral activity against Ebolavirus infected in African green monkey Vero cells. Type of series: functional, cell-based. The following applies: Orthoebolavirus.
Series [14] is described as follows: Selectivity index, ratio of CC50 for African green monkey Vero 76 cells to EC50 for measles virus. Type of series: toxicity. As to conditions: read-out: Ratio CC50/EC50.
The test system of a further series is Norovirus. The experiment in a line: Antiviral activity against Norovirus infected in human HG23 cells. Type of series: functional, organism-based.
Another series deals with West Nile virus. The series is described as follows: Antiviral activity against West Nile virus infected in African green monkey Vero 76 cells. Type of series: functional, organism-based.
For the next series, the system named is Yellow fever virus. The series is described as follows: Antiviral activity against Yellow fever virus infected in African green monkey Vero cells. The series is classed as functional, organism-based.

Activity calls are given as the source filed them. The rule behind the calls is not given here. Where only a bound is given, the exact number is not on record here.

Consider `Nc1cccc2c1ncn2[C@@H]1C=C(CO)[C@@H](O)[C@H]1O`, for which, in series [1], the CC50 is over 1700 µM. In the series on Ebolavirus [2], this compound displayed a concentration giving a half-maximal response (EC50) of 2 µM. The selectivity ratio in series [3] is over 850.
On the same counts, the results for `Nc1ccnc2c1ncn2[C@@H]1C=C(CO)[C@@H](O)[C@H]1O` are 60 µM, 4 µM and 15.
In the case of `Nc1cccc2c1ncn2[C@@H]1C(F)=C(CO)[C@@H](O)[C@H]1O`, the result (in the series with Chikungunya virus; with Usutu virus; in the series on Punta Toro virus; in the series on Tacaribe virus; in the series with Poliovirus 1; in series [5]) was inactive. For the same compound, the outcome (with Hepatitis B virus; in series [8]; in the series on dengue virus type 2; in the series on Rift Valley fever virus; in the series with Human adenovirus 5; with Human betaherpesvirus 5) was inactive. Besides, the result with Norovirus, in the series on West Nile virus and in the series with Yellow fever virus was inactive. The EC50 with Pichinde virus is 57.6 µM; in the series with Influenza A virus, 20.2 µM; in the series with Measles morbillivirus, under 0.36 µM; in the series with Ebolavirus [13] it was under 0.36 µM. Further, the selectivity ratio in series [4] is over 6.3; in series [9] it was 6.6; in [11], over 347; in series [14] it was over 320. In addition, the IC50 in [6] worked out at 0.00869 µM. The CC50 in series [7] is 133 µM; in series [10] it was 125 to 360 µM; in series [12], 115 µM.
